Results reported in US10993937B2, “Composition, for preventing or treating dry eye syndrome, containing polyethylene glycol and flavonoid nanocomposite as active ingredient” (INJE UNIVERSITY INDUSTRY-ACADEMIC COOPERATION FOUNDATION, priority 2017, dated 2021).

Tests used:
[1] = tested on: IL-17; assay: Immunohistochemistry of lacrimal gland sections, IL-17 expression; format: in vivo, mouse; conditions: immunostaining; dryness stress 15.35 times of control
Protocol: (§1) Eighty three NOD.B10.H2^b mice (6 weeks old) in total were obtained from the Jackson Laboratory (Bar Harbor, Me., USA) and performed an acclimatization process for 6 to 10 weeks. Mice were kept in a semi-pathogen free (SPF) facility, and feed and water were provided as free feed.
(§2) Six mice were used for histopathological analysis as a baseline. Seventy seven mice were injected subcutaneously four times daily for 10 days with 500 μg/200 μL of scopolamine hydrobromide (Sigma-Aldrich) which is a muscarinic receptor blocker. At this time, the mice were exposed to desiccation stress (DS) for 10 days, including air ventilation by the fan, with an average ambient humidity of 40% or less for 18 hours daily. On day 10 after scopolamine hydrobromide injection and dryness stress exposure, tear production was measured and a photograph of the cornea was taken.
(§3) On day 10 of DS, 11 mice were used for histopathological analysis. […] All treatments were performed by injecting five times a day and the amount of tear, corneal disorder and fluorescein scores were measured at baseline, day 10 of DS, and day 3, 5, 7, and 10 after treatment. […] In addition, expression of inflammatory factors associated with immunohistochemical staining in the lacrimal gland was evaluated. […]

[2] = tested on: IL-6; assay: Immunohistochemistry of lacrimal gland sections, IL-6 expression; format: in vivo, mouse; conditions: immunostaining; dryness stress 4.02 times of control
Protocol: as §1, §2, §3

[3] = tested on: VCAM-1; assay: Immunohistochemistry of lacrimal gland sections, VCAM-1 expression; format: in vivo, mouse; conditions: versus day 10 of DS and the vehicle-treated group
Protocol: as §1, §2, §3

[4] = tested on: TNF-α; assay: Immunohistochemistry of lacrimal gland sections, TNF-α expression; format: in vivo, mouse; conditions: immunostaining; dryness stress 2.04 times of control
Protocol: as §1, §2, §3

[5] = tested on: ICAM-1; assay: Immunohistochemistry of lacrimal gland sections, ICAM-1 expression; format: in vivo, mouse; conditions: versus day 10 of DS and the vehicle-treated group
Protocol: as §1, §2, §3

[6] = tested on: NOD.B10.H2^b mouse; assay: Density of conjunctival goblet cells (PAS staining); format: in vivo; conditions: after treatment; control 12.86±0.76, dryness stress 6.19±0.16
Protocol: as §1, §2, §3

[7] = tested on: IL-1β; assay: Immunohistochemistry of lacrimal gland sections, IL-1β expression; format: in vivo, mouse; conditions: immunostaining; dryness stress 3.55 times of control
Protocol: as §1, §2, §3

[8] = tested on: NOD.B10.H2^b mouse; assay: Tear production analysis (phenol red-impregnated cotton threads) in mouse model of dry eye syndrome; format: in vivo; conditions: for amount of tears: 1% eye drops 5 μL five times a day, mean±SD
Protocol: as §1, §2
On day 10 of DS, 11 mice were used for histopathological analysis. Sixty six mice were randomly divided into six groups: vehicle (n=11, saline of 5 μL), catechin group (n=11, 1% catechin of 5 μL), CP1 group (n=11, 1% CP1 5 μL), CP5 group (n=11, 1% CP5 5 μL), CP10 group (n=11, 1% CP10 5 μL) and PEG group (n=11, 1% PEG 5 μL). All treatments were performed by injecting five times a day and the amount of tear, corneal disorder and fluorescein scores were measured at baseline, day 10 of DS, and day 3, 5, 7, and 10 after treatment. Hematoxylin and eosin (H&E) and PAS (periodic acid Schiff) staining were performed on the cornea and conjunctiva, respectively. In addition, expression of inflammatory factors associated with immunohistochemical staining in the lacrimal gland was evaluated.
The amount of tears was measured with reference to a previously reported paper (Eye Contact Lens. 2006; 32(6): 272-276). […] The amount of tears was calculated by comparison with a standard curve expressed using a basic solution (1.5 L of 0.9% saline and 5 mL of 5 N sodium hydroxide (NaOH)).

[9] = tested on: NOD.B10.H2^b mouse; assay: Corneal fluorescence staining assay (NEI grading); format: in vivo
Protocol: as §1
as §2, with “At this time, the mice were exposed to desiccation stress (DS) for 10 days, including air ventilation by the fan, with an average ambient humidity of 40% or less for 18 hours daily.” left out
(§4) On day 10 of DS, 11 mice were used for histopathological analysis. […] All treatments were performed by injecting five times a day and the amount of tear, corneal disorder and fluorescein scores were measured at baseline, day 10 of DS, and day 3, 5, 7, and 10 after treatment. […] In addition, expression of inflammatory factors associated with immunohistochemical staining in the lacrimal gland was evaluated.
Fluorescence staining of the cornea was performed with reference to a previously reported paper (CLAO J. 1995; 21: 221-232). […] Punctate staining was assessed using a standard NEI (national eye institute) grading system with scores of 0 to 3 on each of the five areas of the cornea.

[10] = tested on: MMP-9; assay: Immunohistochemistry of lacrimal gland sections, MMP-9 expression; format: in vivo, mouse; conditions: compared with the day 10 of DS
Protocol: as §1, §2, §3

[11] = tested on: NOD.B10.H2^b mouse; assay: Analysis of corneal irregularities (white ring, corneal disorder score); format: in vivo; conditions: for corneal disorder score: 5-point scale
Protocol: as §1, §2, §4
Corneal abnormality was measured with reference to a previously reported paper (Invest Ophthalmol Vis Sci. 2006; 47:2847-2856). […] Corneal smoothness was assessed by grading the irregularity of the corneal epithelial cells reflected in the white ring of the digital image. The reflected ring was divided into quarters and the corneal disorder score was calculated using the 5-point scale based on the number of distorted branches in the reflected ring: 0, no distortion; 1, a quarter of distortion; 2, two-quarters of distortion; 3, three-quarters of distortion; 4, four-quarters of distortion; 5, severe distortion.

catechin was tested. Which “IL-17 expression in the lacrimal gland” value [1] did it give?
Its value is “significantly decreased IL-17 expression”.

What about the “expression of IL-6 in the lacrimal gland” value [2] of the same substance?
The value was “no statistically significant difference with day 10 of DS”.

And the “expression of VCAM-1, effect in words” value [3]?
The value was “did not show statistically significant difference”.

What about the “expression of TNF-α in the lacrimal gland” value [4] of the same substance?
The value was “no statistically significant difference with day 10 of DS”.

What about the “expression of ICAM-1, effect in words” value [5] of the same substance?
Its value is “did not show statistically significant difference”.

What about the “number of conjunctival goblet cells” value [6] of the same substance?
Its value is 9.71±1.25 /0.1 mm^2.

What about the “expression of IL-1β in the lacrimal gland” value [7] of the same substance?
Its value is “no statistically significant difference with day 10 of DS”.

What about the amount of tears ([8]; after 3 days of treatment) of the same substance?
Its amount of tears is 0.08 ± 0.03 µL.

And the amount of tears ([8]; after 5 days of treatment)?
Its amount of tears is 0.13 ± 0.01 µL.

What about the “days of treatment after which tear production recovered to the baseline level” value ([8]; baseline 0.16±0.02 μL) of the same substance?
Its value is 5 days.

What about the “corneal fluorescence staining score” value ([9]; day 7 after treatment, vehicle 10.00±1.00) of the same substance?
Its value is 6.67±0.58.

What about the “corneal fluorescence staining score” value ([9]; day 10 after treatment) of the same substance?
Its value is 3.67±0.58.

What about the “expression of MMP-9, effect in words” value [10] of the same substance?
The value was “significantly decreased the MMP-9 expression but did not recover to the control level”.

What about the “day after treatment on which white rings on the corneal surface were observed” value ([11]; FIG. 2A, microscopic image) of the same substance?
The value was 10 days.

And the corneal disorder score ([11]; day 7 after treatment, vehicle 3.63±0.48)?
The corneal disorder score was 2.88±0.48.

What about the corneal disorder score ([11]; day 10 after treatment) of the same substance?
Its corneal disorder score is 2.38±0.47.
